Marks after values point to notes of the source that are not given here.
Columns and labels:
Human fibroblasts = assay: Antiproliferative effect on cultured human fibroblasts (crystal violet absorbance as measure of cell number); type: cell-based; details: for Effect on cell number of the cultures (decrease in crystal violet absorbance): 10^−6 to 10^−3 Moles/l, 5-7 days; for EC50 value for reducing cell number / EC50: 5-7 days of culture, crystal violet absorbance at 595 nm; for EC50: read-out: EC50 value for reducing cell number
Procedure: The following prostaglandins, purchased from Cayman Chemicals, Ann Arbor, Mich., USA, and Biomol Feinchemikalien GmbH, Hamburg, Germany were used in the experiments: prostaglandin A1 (PGA1), prostaglandin A2 (PGA2), prostaglandin J2 (PGJ2) and 15-deoxy-Δ^12,14-prostaglandin J2 (15-Δ^12,14-PGJ2). The chemical structures of the test compounds are depicted in FIG. 1. All test compounds were stored at −20° C., and fresh solutions containing the appropriate concentrations of the test compounds were made every second day. The test compounds were initially dissolved in ethanol and then diluted in the culture medium.
Human fibroblasts were used at passage 22-24. The culture medium consisted of DMEM with 10% fetal calf serum and 50 μg/ml gentamycin. Around 10,000 cells were seeded into each well of 48 well microtiter plates. The total volume of culture medium was about 250 μl/well. The cells were incubated at 37° C. with 5% CO2 humidified air. The culture medium was changed every second day, and at the same time new, freshly prepared prostaglandin was added to the medium. The test compounds were investigated at several concentrations in the range of 10^−6 to 10^−3 Moles/l. […] The concentrations in the figures depicting the results are expressed as the negative logarithm The culture medium alone served as control. After 5-7 days of culture the experiment was terminated by fixation of the cells in 1% glutaraldehyde. The cells were then stained with 0.1% crystal violet, and the stain was eluted with 2.5% sodium lauryl sulphate. The absorbance of the colored solutions was determined spectrophotometrically. Each experiment was performed at least in duplicate.

[1] = system: New Zealand White adult rabbits; assay: Postsurgical intraocular inflammation after extracapsular lens extraction in rabbits; type: in vivo, rabbit; details: 10 μg/dose twice daily; for Number of animals, operated eye Normal / Number of animals, operated eye Inflamed: 5 animals
Text: Ten New Zealand White adult rabbits underwent extracapsular lens extraction in one eye to investigate the effect of PGA2-E on postsurgical inflammation. Lens extraction was used as a model since this procedure is always followed by some inflammatory changes. The contralateral eye was used as an untreated control eye in each animal. The operated eyes were given routine postsurgical treatment with corticosteroids and mydriatics for about one month. From the day after the surgery and for a total of 4 months 5 of the animals were treated with PGA2-IE eye drops twice daily (10 μg/dose) in the operated eye while the contralateral control (non-operated) eye received no treatment. The other 5 animals were treated with the vehicle only twice daily for the same period of time. […] The signs of inflammation comprised miosis, iridial hyperemia, flare and fibrin accumulation in the anterior chamber, and additional anti-inflammatory medication had to be given to these animals.

[2] = system: New Zealand White adult rabbits; assay: Intraocular pressure after modified trabeculectomy surgery in rabbits with topical eye drops; type: in vivo, rabbit
Procedure: Ten New Zealand White adult rabbits underwent modified unilateral trabeculectomy surgery and were treated with corticosteroids and mydriatics postoperatively for about one month according to a clinical protocol. Starting the same day as the surgery was performed, the operated eye in five animals was in addition treated twice daily with PGA2-IE eye drops (10 μg/dose) for 4 months, while in the other five animals the operated eye was treated with vehicle only for the same period of time. The intraocular pressure was measured throughout the treatment period at least every second week. […] From FIG. 4 it is apparent that the difference in intraocular pressure between the vehicle-treated operated and control eyes steadily diminished with time which was quite opposite to the difference in traocular pressure between the PGA2-IE-treated operated and control eyes in FIG. 5. Thus it appears that even during this short treatment period (4 months) a difference in the level of intraocular pressure reduction between the PGA2-IE treated and vehicle-treated operated eyes is manifested, and at the end of the treatment period the difference in intraocular pressure reduction was statistically significant (p<0.05) (Table 1).

SMILES: CCCCC/C=C/C=C1/C(=O)C=C[C@@H]1C/C=C\CCCC(=O)O [15-deoxy-Δ^12,14-PGJ2, 15-deoxy-Δ^12,14-prostaglandin J2]
- Effect on cell number of the cultures (decrease in crystal violet absorbance) (Human fibroblasts): effectively reduced the cell number

SMILES: CCCCC[C@H](O)/C=C/[C@H]1C=CC(=O)[C@@H]1CCCCCCC(=O)O [PGA1, prostaglandin A1]
- Effect on cell number of the cultures (decrease in crystal violet absorbance) (Human fibroblasts): effectively reduced the cell number

SMILES: CCCCC[C@H](O)/C=C/[C@H]1C=CC(=O)[C@@H]1C/C=C\CCCC(=O)O [PGA2, prostaglandin A2]
- EC50 value for reducing cell number (Human fibroblasts): around −5.5 log units
- EC50 (Human fibroblasts): ~3 µM
- Effect on cell number of the cultures (decrease in crystal violet absorbance) (Human fibroblasts): effectively reduced the cell number

SMILES: CCCCC[C@H](O)/C=C/[C@H]1C=CC(=O)[C@@H]1C/C=C\CCCC(=O)OC(C)C [PGA2-IE, PGA2-isopropyl ester]
- Number of animals, operated eye Normal ([1]; 2 months after surgery): 3
- Number of animals, operated eye Inflamed ([1]; 2 months after surgery, one only slightly inflamed): 2*
- Anti-inflammatory effect in the eye ([1]; 4 month treatment): remarkable anti-inflammatory effect
- Number of animals, operated eye Inflamed ([1]; 4 months after surgery): 1
- Number of animals, operated eye Normal ([1]; 4 months after surgery): 4
- Maintenance of the intraocular pressure at a reduced level after surgery compared with vehicle ([2]; 4 months, 10 μg/dose twice daily): clear tendency towards better maintenance of the intraocular pressure at a reduced level
- Adverse effects in the eye (local inflammation or increased intraocular pressure) ([2]; 4 months, 10 μg/dose twice daily topical): no adversarial effects in the eye
- Intraocular pressure, operated eye ([2]; end of 4 month treatment, 10 μg/dose twice daily eye drops, n=5): 17.2 ± 2.9 mmHg
- Intraocular pressure, difference between control eye and operated eye ([2]; end of 4 month treatment, 10 μg/dose twice daily eye drops, n=5, p<0.05 vs vehicle group): 3.8 ± 1.0 mmHg

SMILES: CCCCC[C@H](O)/C=C/[C@H]1C(=O)C=C[C@@H]1C/C=C\CCCC(=O)O [PGJ2, prostaglandin J2]
- EC50 value for reducing cell number (Human fibroblasts): about −4.75 log units
- EC50 (Human fibroblasts): ~20 µM
- Effect on cell number of the cultures (decrease in crystal violet absorbance) (Human fibroblasts): effectively reduced the cell number

— patent publication US6495563B1, “Method and composition for prevention of scar formation in glaucoma filtration bleb and drainage fistula” (Synphora AB, priority 1999, dated 2002)
